Data from PMC7714071, “Interaction of amyloid beta with humanin and acetylcholinesterase is modulated by ATP” (FEBS Open Bio, 2020).

Columns and labels:
Aβ = settings: cited from earlier work
Description: Soluble oligomers of proteins implicated in different diseases are primarily thought to be the main toxic form as opposed to the larger fibrillar assemblies. Aβ regions containing Tyr and Ser (H6DSGY10 and G25SNKG29) (Fig. 1) along with post‐translational modifications of these regions, have been implicated in misfolding, oligomerization, or fibril formation of Aβ [5, 10, 11, 16, 41]. […] In addition to ATP, the glycosaminoglycan, heparan sulfate (HS), has been previously reported to i ... || Access to the central domain of Aβ (residues 17–24) flanked by Lys‐16 and Lys‐28, known to be a critical structural element in fibrillar Aβ aggregates, might be regulated by binding of AChE and HN to their overlapping binding sites on Aβ. […] Moreover, we s ...

AChE = test: ELISA, binding of biotinylated-Aβ42 to immobilised AChE; design: species or system human
Description: Most of the material used was purchased as we previously reported. Nitrocellulose membranes, PBS, ATP, recombinant human AChE (C1682, UniProt accession ID: C9JD78), streptavidin‐conjugated horseradish peroxidase (HRP) conjugate, Ponceau S solution, PMSF, and HS sodium salt from bovine kidney were purchased from Sigma‐Aldrich (St. Louis, MO, USA). Mouse IgG isotype control (mIgG), ultra 3,3′,5,5′‐tetramethylbenzidine (TMB)‐ELISA substrate solution, Halt Protease and Phosphatase Inhibitor Cocktail, HN polyclonal antibody (rabbit, PA1‐41610), and Nunc MaxiSorpTM 96‐well flat bottom plates were from Thermo Fisher (Waltham, MA, USA). […]
ELISAs were carried out as we previously reported. […] TBST was then used to wash the wells 4× before proceeding in one of two ways: (a) biotinylated samples were analyzed by adding 100 µL streptavidin–HRP conjugate in TBST (1 : 2500 dilution) to the samples followed by incubation for 3 h at RT on a shaker, or (b) samples without biotin were analyzed by adding 100 µL TBST containing the primary antibody as per the manufacturer's recommendation, incubating for 3 h at RT on a shaker, followed by washing the wells 4× with TBST. […] The reaction was stopped with 100 µL 2 M H2SO4 after incubating at RT for 0.5–15 min, resulting in a yellow color change, measured by absorbance at 450 nm. […] Statistical analysis was determined by the […]

Humanin [HN]
Aβ aggregation in presence of both HN and AChE (Aβ; to levels close to HN alone): greatly diminished

heparan sulfate [HS]
effect of HS on Aβ aggregation (Aβ): increasing their aggregation | effect of HS on binding of Aβ42 to AChE (AChE; AChE 10 nM on wells, biotinylated-Aβ 1 μM, increasing HS, three independent assays, Fig. 2C): No effects

Nc1ncnc2c1ncn2[C@@H]1O[C@H](COP(=O)(O)OP(=O)(O)OP(=O)(O)O)[C@@H](O)[C@H]1O [ATP, Adenosine triphosphate]
effect on misfolding of Aβ (Aβ; physiological intracellular concentrations, enhanced by magnesium): reduced misfolding of Aβ | effect of ATP on affinity of AChE to Aβ42 (AChE; 200 μM ATP, 30 min preincubation RT, pH 7.5, 10 mM MgCl2, three experiments in triplicate, Fig. 3B): reduced the affinity
